Source: patent publication US9174942B2, “IDO inhibitors” (NewLink Genetics Corporation, priority 2008, dated 2015)

The compounds below were run against T1, purified human IDO protein (Homo sapiens, UniProt P14902, E119G/P110S) (assay: Enzymatic IDO assay (kynurenine formation, absorbance at 480 nm)). Settings: recombinant human IDO, 200 μM L-tryptophan, pH 6.5; reported in ranges.
T1 construct: 6-Histidine tag (C); made in house; host or cells: E. coli M15(pREP4) transformed with pQE70-hIDO
Format: biochemical
Procedure: The inhibitors were initially diluted in DMSO at 100 mM and were diluted in potassium phosphate 50 mM, added to the reaction mixture at final concentrations raging from 1 mM to 5 nM and preincubated with the enzyme for 5 min at 25° C. The reaction was started by addition of L-tryptophan to 200 μM and incubated 15 min at 37° C. The reaction was stopped by addition of 0.5 vol of 30% trichloroacetic acid and incubated 30 min at 60° C. to hydrolyze N-formylkynurenine to kynurenine. The reaction was centrifuged at 3400 g for 5 min to remove precipitated protein and the supernatant was reacted with 2% (w/v) of p-dimethylaminobenzaldehyde in acetic acid. The reaction was incubated 10 min at 25° C. and read at 480 nm in a spectrophotometer. […] Nonlinear regressions and determination of the IC50 values were performed using the GraphPad Prism 4 software.

T1 sequence (P14902 whole entry P110S/E119G): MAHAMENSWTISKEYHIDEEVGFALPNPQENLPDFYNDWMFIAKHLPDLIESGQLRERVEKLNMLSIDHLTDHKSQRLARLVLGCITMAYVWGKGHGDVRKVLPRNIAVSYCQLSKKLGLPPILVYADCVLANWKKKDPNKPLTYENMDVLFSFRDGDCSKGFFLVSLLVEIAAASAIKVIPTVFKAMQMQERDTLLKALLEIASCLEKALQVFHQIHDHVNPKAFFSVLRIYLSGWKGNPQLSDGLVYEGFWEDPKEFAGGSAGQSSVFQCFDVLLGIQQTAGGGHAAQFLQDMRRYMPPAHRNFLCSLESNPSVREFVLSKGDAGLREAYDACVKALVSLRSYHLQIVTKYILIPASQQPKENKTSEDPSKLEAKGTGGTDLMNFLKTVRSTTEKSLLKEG

IC50	Compound
20 to 100 µM	CC(=O)NCc1ccc(COc2ccccc2-c2c[nH]cn2)cc1 [Compound 154, N-(4-((2-(1H-imidazol-4-yl)phenoxy)methyl)benzyl) acetamide]
100 to 500 µM	CS(=O)(=O)Nc1ccccc1-c1c[nH]cn1 [Compound 101, N-(2-(1H-imidazol-4-yl)phenyl)methanesulfonamide]
100 to 500 µM	c1cnc(NCCOc2ccccc2-c2cnc[nH]2)nc1 [Compound 102]

The next lines start with the compound.

Compound	IC50
Brc1ccc(-c2c[nH]cn2)cc1 [Compound 70, 5-(4-bromophenyl)-1H-imidazole]	20 to 100 µM
Cc1cccc(COc2ccccc2-c2cnc[nH]2)c1 [Compound 48, 5-(2-(3-methylbenzyloxy)phenyl)-1H-imidazole]	< 20 µM
CSc1ccccc1-c1c[nH]cn1 [Compound 1, 5-(2-(methylthio)phenyl)-1H-imidazole]	20 to 100 µM
CC(C)(C)COc1ccccc1-c1c[nH]cn1 [Compound 31, 4-(2-(neopentyloxy)phenyl)-1H-imidazole]	< 20 µM
Sc1ccccc1-c1c[nH]cn1 [Compound 23, 2-(1H-imidazol-5-yl) benzenethiol]	< 20 µM
CC(C)(C)OC(=O)NCCCCn1cncc1-c1ccccc1 [Compound 86, tert-butyl 4-(5-phenyl-1H-imidazol-1-yl)butylcarbamate]	20 to 100 µM
